Experimental data published in article PMC11868579 (Nature Communications, 2024).
pKd: −log10 of the molar value. Where “and” joins values, the source holds several entries; their conditions need not be identical. Equal values may be shown once.

What was measured:
c-Myc-activity = assay: c-Myc-regulated luciferase reporter in SW620 cells; assay type: cell-based, human; parameters: CMV, Average / c-Myc, Average: unit not given here; details: for c-Myc, Average / CMV, Average: SW620; for c-Myc, Average: c-Myc-regulated firefly luciferase reporter; for CMV, Average: constitutive CMV promoter-regulated renilla luciferase reporter
Experimental: Luminescence was measured using the Dual-glo luciferase assay (mean ± SEM from 3 biological replicates). b SW620 cells were transfected with a c-Myc-regulated firefly luciferase expression reporter or a constitutive CMV promoter-regulated renilla luciferase reporter. Cells were treated for 24 hr with 1 or 10 µM compound 4 or the […] kinase inhibitor AZD8055 as positive control (mean ± SEM from 3 biological replicates). An ordinary one-way ANOVA with Tukey multiple comparisons test was performed comparing c-Myc-regulated firefly luciferase expression or CMV-regulated Renilla luciferase expression following the different treatments. For c-Myc-regulated firefly luciferase expression, all significant p values […]
were <0.0001. […]
Source data is located in the Supplementary Source Data file

[1] = system: cap-dependent and cap-independent (IRES) protein synthesis; assay: Bicistronic protein synthesis reporter in H1299 cells; assay type: cell-based, human; details: H1299; 100 μM, 24 hr; normalisation not stated
Experimental: H1299 cells were transfected with a biscistronic vector using Lipofectamine 3000 transfection reagent (Fisher Scientific, cat#L3000008) for 24 hr and then treated with compounds for further 24 h. Luminescence was measured after 24 h of compound treatment using the Dual Glo luciferase reporter assays as above.

[2] = biological target: T1, eIF4E minor variant D127N (N127) (Homo sapiens, UniProt P06730, D127N); assay: Isothermal titration calorimetry, eIF4E minor variant; assay type: binding; details: for pKd: ITC; for pKd / LE (ligand efficiency): minor variant D127N
T1 construct: made in house; host or cells: E. coli BL21-CodonPlus (DE3)-RIPL
T1 sequence (P06730 36-217 D127N): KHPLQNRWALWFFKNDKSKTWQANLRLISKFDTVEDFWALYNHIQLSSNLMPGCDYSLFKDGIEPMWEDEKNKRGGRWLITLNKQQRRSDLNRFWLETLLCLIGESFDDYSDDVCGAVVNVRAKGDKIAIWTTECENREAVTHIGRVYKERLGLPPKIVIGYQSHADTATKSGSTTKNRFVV
Experimental: ITC experiments were performed on either a MicroCal VP-ITC or a MicroCal Auto-ITC200 at 25 °C in a buffer comprising 50 mM HEPES, 100 mM NaCl, 1 mM TCEP and 5% DMSO at pH 7.5. Typical titrations on the MicroCal VP-ITC were performed using 17 × 16.4 µL injections with a 250 s spacing between each injection and with a stirring speed of 307 rpm. Typical titrations on the MicroCal Auto-ITC200 were performed using 12 × 3 µL injections with a 150 s spacing between each injection and with a stirring speed of 750 rpm. ITC data analyses were performed with Origin 7.0 software using the “One Set of Sites” model.

[3] = system: H1299 eIF4E-dTAG clones proteome; assay: Global proteome profiling (DIA LC-MS/MS); assay type: cell-based, human; details: 500 nM, 72 hr
Experimental: Cells (1 × 10^5 cells/ml) were lysed using SDS-free lysis and the lysate made up to 1 mL. Disulphide bounds were disrupted by reduction and alkylation. DTT was added to sample with a final concentration of 10 mM and incubated at 37 °C for 30 min. Iodoacetamide was then added to sample with a final concentration of 55 mM and incubated in the dark at room temperature for 30 min. The protein mixture was then enriched through a solid phase (SPE) C18 column. The C18 column was activated with 1 ml methanol at a rate of 3 drops/second, followed by 1 ml 0.1% formic acid to condition the column. The diluted protein mixture was loaded onto the column at 1 drop/sec, the column was washed with 3 ml 0.1% formic acid and enriched proteins were eluted with 800 μl 75% acetonitrile at a rate of 0.5 drops per second and the eluate was freeze-dried. The freeze-dried proteins were redissolved in 20 μl 50 mM ammonium bicarbonate and quantified according to the manufacturer’s instructions (Pierce Quantitative Fluorometric Peptide Assay cat# 23290). A small aliquot was removed for PAGE QC analysis on a 12% polyacrylamide gel. The remainder of the protein samples were digested with trypsin at a ratio of 1:20 for enzyme and proteins (w/w). The mixture was incubated for 14–16 h at 37 °C.
For DDA (Data Dependent Acquisition) library construction (Nano-LC-MS/MS) the dried peptide samples were reconstituted with mobile phase A (2% ACN, 0.1% FA), centrifuged at 20,000 g for 10 minutes, and the supernatant was taken for injection. Separation was carried out by a Thermo UltiMate 3000 UHPLC liquid chromatograph. […] The main parameters were set: ion source voltage was set to 1.9 kV, MS1 mass spectrometer scanning range was 350 ~ 1650 m/z; resolution was set to 120,000; maximal injection time (MIT) 90 ms; MS/MS collision type HCD, collision energy NCE 30; MS/MS resolution 30,000, MIT was auto mode, dynamic exclusion duration 120 seconds. The start m/z for MS/MS was fixed to auto mode. Precursor for MS/MS scan satisfied: charge range 2+ to 6 + , top 30 precursors with intensity over 2E4. AGC was: MS 300%, MS/MS 100%.
Peptides separated by liquid phase chromatography were ionized by a nanoESI source and then passed to an Orbitrap Exploris480 (Thermo Fisher Scientific, San Jose,CA) to acquire mass spectrometry data in DIA mode. The main parameters were set: ion source voltage was set to 1.9 kV, MS1 mass spectrometer scanning range was 400 ~ 1250 m/z; resolution was set to 120,000; maximal injection time (MIT) 90 ms; 400 ~ 1250 m/z was equally divided to 50 continuous windows MS/MS scan. MS/MS collision type HCD, collision energy NCE 30; MIT was auto mode. Fragment ions were scanned in Orbitrap, MS/MS resolution 30,000. AGC was: MS 300%, MS/MS 1000%.
DIA data was analysed using the iRT peptides for retention time calibration. Then, based on the target-decoy model applicable to SWATH-MS, false positive control was performed with FDR 1% to obtain significant quantitative results. MSstats was used for the statistical evaluation of significant differences in proteins or peptides from different samples. The core algorithm is linear mixed effect model that pre-processes the data according to the predefined comparison group, and then performed the significance test based on the model. Thereafter, differential protein screening was performed based on the fold change >2 and p-value < 0.05 as the criterion for the significant difference.

MCL1 protein expression = assay: Immunoblot of MCL1 in eIF4E-dTAG clones and rescue models; assay type: cell-based, human; details: eIF4E-dTAG clones
Experimental: One sample t and Wilcoxon tests (two-sided), using 100% as hypothetical control value, were performed and compared with the control in each cell line. b, c Real-time cell growth measurements monitored every 4 h over a 6-day period. Cell confluency (%) was calculated using Incucyte Zoom software and (mean ± SEM n = 3 biological replicates). Ordinary one-way ANOVA with Tukey multiple comparisons test compared treatment with the control in each cell line. […] Vinculin was used as loading control. H1299 (PAR) cell lines were treated with 1 μM dTAG^V-1 only as qualitative control. Vinculin was used as loading control. […] Significant p-values (< 0.05) are shown on the plots and the source data is located in the Source Data file.
After seeding overnight in 6 well plates (Corning, cat#353046), cells were treated with compounds for the indicated times and concentration, harvested and the cell pellet lysed on ice in cell lysis buffer (Cell Signaling, cat#9803), supplemented with 1x Halt^TM protease inhibitor cocktail (Fisher Scientific, cat#78429) and cOmplete^TM protease inhibitor cocktail (Sigma-Aldrich, cat#11836153001) for 1 hr. Protein was quantified using BCA protein kit (Fisher Scientific, cat#23225). Western blot was performed using NuPAGE^TM 4–12% Bis-Tris gels (Fisher Scientific, cat#NP0336BOX) and transferred using the Invitrogen iBLOT^TM gel transfer device system (Fisher Scientific, Cat#IB21001). […] All primary antibodies were diluted (1:1000) in 5% BSA (Sigma-Aldrich, cat#A7906) in 1x TBS and 0.1% Tween 20 (Sigma-Aldrich, cat#P1379), except for vinculin (1:2000) that was diluted in casein blocker (Sigma-Aldrich, cat#1610782). This was followed by incubation with the secondary HRP-conjugated antibodies (anti-mouse HRP, Bio-rad, Watford, UK, cat#1705047; anti-rabbit HRP, Sigma-Aldrich, cat#NA934) in casein for 1 h at RT. ECL HRP substrate (SuperSignalTM West Pico, Fisher Scientific, cat#34578) was then added to detect protein targets by chemiluminescence and images acquired using the ChemiDocTM system (Bio-Rad). Quantitative densitometry analysis of protein bands was performed using Image J v1.53 software.

COc1ccc(-c2ccc3c(N4CCOC[C@@H]4C)nc(N4CCOC[C@@H]4C)nc3n2)cc1CO [AZD8055, reference compound]
c-Myc, Average (c-Myc-activity; 1μM): 19.11 | CMV, Average (c-Myc-activity; 1μM): 86.61 | c-Myc, Average (c-Myc-activity; 10μM): 13.82 | CMV, Average (c-Myc-activity; 10μM): 130.75 | activity in c-Myc reporter assay (c-Myc-activity; SW620 cells, 1 or 10 µM, 24 hr): clearly inhibited activity

C[C@@H]1C[C@@H]([C@H](O)CC2CC(=O)NC(=O)C2)C(=O)[C@@H](C)C1 [CHX, cycloheximide, reference compound]
protein synthesis reporter signal (cap-dependent luciferase / IRES luciferase), replicate values [1]: 0.353 and 0.410 and 0.685 and 0.311 and 0.478 and 0.325

Oc1cccc(-c2ccccc2)c1 [Compound 1, [1,1'-biphenyl]-3-ol]
pKd [2]: 3.40 | LE (ligand efficiency) [2]: 0.36 (kcal/mol)/heavy atom

O=C(O)C1(c2ccc(Cl)cc2)CCCC1 [Compound 2, 1-(4-chlorophenyl)cyclopentane-1-carboxylic acid]
pKd [2]: 2.13 | LE (ligand efficiency) [2]: 0.19 (kcal/mol)/heavy atom

CC(O)c1ccc(-c2ccccc2F)cc1 (stereo not drawn) [Compound 3, 1-{2'-fluoro-[1,1'-biphenyl]-4-yl}ethan-1-ol]
pKd [2]: 4.70 | improvement in affinity ([2]; compound 3 versus compound 1): 20 fold | LE (ligand efficiency) [2]: 0.4 (kcal/mol)/heavy atom

CC[C@H](C(=O)N1CCCC[C@H]1C(=O)O[C@H](CCc1ccc(OC)c(OC)c1)c1ccccc1OCC(=O)NCCCCCCC(=O)N[C@H](C(=O)N1C[C@H](O)C[C@H]1C(=O)N[C@@H](C)c1ccc(-c2scnc2C)cc1)C(C)(C)C)c1cc(OC)c(OC)c(OC)c1 [dTAG-v1]
Normalised signal intensity, A2M ([3]; H1299 C2-2 dTAG clone): 17.256 | Normalised signal intensity, AAAS (first entry, r5) ([3]; H1299 C2-2 dTAG clone): 16.230 | Normalised signal intensity, AAAS (second entry, r6) ([3]; H1299 C2-2 dTAG clone): 19.251 | Normalised signal intensity, AACS ([3]; H1299 C2-2 dTAG clone): 16.229 | Normalised signal intensity, A2M ([3]; H1299 C3-1 dTAG clone): 17.317 | Normalised signal intensity, AAAS (first entry, r5) ([3]; H1299 C3-1 dTAG clone): 15.976 | Normalised signal intensity, AAAS (second entry, r6) ([3]; H1299 C3-1 dTAG clone): 18.995 | Normalised signal intensity, AACS ([3]; H1299 C3-1 dTAG clone): 16.150 | Normalised signal intensity, A2M ([3]; H1299 N2-1 dTAG clone): 17.029 | Normalised signal intensity, AAAS (first entry, r5) ([3]; H1299 N2-1 dTAG clone): 15.914 | Normalised signal intensity, AAAS (second entry, r6) ([3]; H1299 N2-1 dTAG clone): 19.083 | Normalised signal intensity, AACS ([3]; H1299 N2-1 dTAG clone): 15.496 | Normalised signal intensity, A2M ([3]; H1299 N3-2 dTAG clone): 16.465 | Normalised signal intensity, AAAS (first entry, r5) ([3]; H1299 N3-2 dTAG clone): 15.682 | Normalised signal intensity, AAAS (second entry, r6) ([3]; H1299 N3-2 dTAG clone): 18.655 | Normalised signal intensity, AACS ([3]; H1299 N3-2 dTAG clone): 16.041

CC[C@H](C(=O)N1CCCC[C@H]1C(=O)O[C@H](CCc1ccc(OC)c(OC)c1)c1ccccc1OCC(=O)NCCCCCCC(=O)N[C@H](C(=O)N1C[C@@H](O)C[C@@H]1C(=O)N[C@@H](C)c1ccc(-c2scnc2C)cc1)C(C)(C)C)c1cc(OC)c(OC)c(OC)c1 [neg-dTAG^V-1, reference compound]
MCL1 protein after treatment (MCL1 protein expression): Loss of MCL1 protein was not observed
